Source: PubChem BioAssay AID1963449 (Molecular Pharmacology Branch, DTP, NCI, 2024)
pIC50: −log10 of the molar value.

Tested on: 596521-263-R-J1-PDC complex spheroid growth
Assay: Anticancer human tumor 596521-263-R-J1-PDC patient-derived soft tissue sarcoma cell line growth inhibition [Asc]
Conditions: for pIC50: curve of first compound; for viability, T/C: stronger effect = lower value
Experimental: Multicellular complex tumor spheroid response to apoptosis pathway targeting inhibitors Alrizomadlin, Pelcitoclax, and Dasminapant in combination with a variety of drugs and investigational agents in selected tumor cell lines
The MDM2 inhibitor alrizomadlin, the Bcl-2/Bcl-xL inhibitor pelcitoclax, and the IAPs inhibitor dasminapant were evaluated both individually and in combination with standard of care and investigational anticancer small molecules within a complex spheroid model of solid tumors. . Complex spheroids include a stromal component modeled by human endothelial cells (HUVEC) and fibroblasts modeled by human mesenchymal stem cells (MSCs). The concentration ranges selected for each drug and investigational agent were based upon clinically achievable concentrations if the clinical Cmax of the agent was known.
Compounds. The drugs and investigational agents: alrizomadlin (APG-115; NSC831270), pelcitoclax (APG-1252; NSC835773), dasminapant (APG-1387;NSC834197), TAK-243 (NSC785004), copanlisib (NSC809693), olaparib (NSC753686), talazoparib (NSC767125), cobimetinib (NSC 768068), eltanexor (KPT-8602, NSC 794443), abemaciclib (NSC 768073), sotorasib (NSC818433), adagrasib (NSC 831453), MRTX-1133 (NSC 836407), Iadademestat (ORY1001, NSC 806812), and RMC-4630 (NSC839698), were obtained from the NCI Developmental Therapeutics Program Chemical Repository. The FDA-approved anticancer drug set is available from the Developmental Therapeutics Program at https://dtp.cancer.gov/organization/dscb/obtaining/available plates.htm. […] The stock solutions were prepared in dimethyl sulfoxide (DMSO, Sigma-Aldrich, St. Louis, MO, cat. D2650) at 800-fold the tested concentration and stored at -70 degrees C prior to their use. All drugs and investigational agents were tested over a range starting from a high concentration at or near the clinical Cmax and decreasing in half-log increments. If the clinical Cmax for an agent had not been determined, the highest concentration tested was 10 microM.
The patient-derived cancer (PDC) cell lines include five colon adenocarcinomas: 186277-243-T-J2-PDC, 616215-338-R-J1-PDC, 439559-082-T-J2-PDC, 463943-066-T-J2-PDC, and 519858-162-T-J1-PDC; three pancreatic carcinomas: 323965-272-R-J2-PDC, 521955-158-R6-J3-PDC, and 521955-158-R2-J5-PDC; two uterine sarcomas: 327498-152-R-J2-PDC and 993429-296-R-J1-PDC; two rhabdomyosarcomas: 755483-174-R-J1-PDC and 772245-204-R-J1-PDC; two soft tissue sarcomas: 126254-015-R-J1-PDC and 494315-158-R-J1-PDC; two malignant fibrous histiocytomas: 317291-083-R-J1-PDC and 596521-263-R-J1-PDC; two breast carcinomas: 171881-019-R-J1-PDC and 885512-296-R-J2-PDC; and one ovarian carcinoma: 6556581-035-R-J-PDC were obtained from the NCI PDMR, (https://pdmr.cancer.gov). The established cell lines HSSY-2 synovial sarcoma (RRID:CVCL 8719), SYO-1 synovial sarcoma (RRID:CVCL_7146), MPNST malignant peripheral neural sheath tumor were obtained from the Sloan Kettering Institute. The following established cell lines were purchased from the American Type Culture Collection (ATCC, Manassas, VA), Sor the received from the NCI repository:, PANC-1 pancreatic carcinoma (CRL-1469, RRID:CVCL_0480), OVCAR-5 ovarian carcinoma (RRID:CVCL_1628), OVCAR-8 ovarian carcinoma (RRID:CVCL_1629), , MCF-7 breast carcinoma (CRL-12584, RRID:CVCL_0031), MDA-MB-231 breast carcinoma (CRL-12532, RRID:CVCL_0062), NCI-H1876 small cell lung carcinoma (CRL-5902, RRID:CVCL_1503), NCI-H510A small cell lung carcinoma (HTB-184, RRID:CVCL_1565), NCI-H1417 (CRL-5869, RRID:CVCL_1469), and NCI-H196 small cell lung carcinoma (CRL-5823, RRID:CVCL_1509). Dr. Peter Houghton (Greehey Children's Cancer Research Institute, University of Texas Health Science Center, San Antonio, TX) provided Rh-18 rhabdomyosarcoma (RRID:CVCL_1659). Pooled donor human umbilical vein endothelial cells (HUVEC, Lonza, cat. CC-2519) and human mesenchymal stem cells (hMSC, Lonza, cat. PT-2501) were purchased from Lonza (Walkersville, MD).
Cell Culture. […]
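Further: spheroids exposed to compounds for 7 days.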

`C#Cc1c(F)ccc2cc(O)cc(-c3ncc4c(N5CC6CCC(C5)N6)nc(OCC56CCCN5CC(F)C6)nc4c3F)c12` (configuration not stated) + CCN1C(C(=O)NC23CCC(C(=O)O)(CC2)CC3)C(c2cccc(Cl)c2F)C2(C(=O)Nc3cc(Cl)ccc32)C12CCCCC2 gave a pIC50 (second compound 0.00949 µM) of under 5.00, a pIC50 (second compound 0.03 µM) of under 5.00 and a pIC50 (second compound 0.0949 µM) of under 5.00. It also gave a pIC50 (second compound 0.3 µM) of under 5.00, a pIC50 (second compound 0.949 µM) of under 5.00 and a pIC50 (second compound 3 µM) of under 5.00. It also gave a viability, T/C (second compound 0.00949 µM, first compound 0.0316 µM) of 90.9%, a viability, T/C (second compound 0.00949 µM, first compound 0.1 µM) of 88.8% and a viability, T/C (second compound 0.00949 µM, first compound 0.316 µM) of 93.7%. For the same molecule, the viability, T/C (second compound 0.00949 µM, first compound 1 µM) was 93.1%, the viability, T/C (second compound 0.00949 µM, first compound 3.16 µM) was 100% and the viability, T/C (second compound 0.00949 µM, first compound 10 µM) was 87.7%. For the same molecule, the viability, T/C (second compound 0.03 µM, first compound 0.0316 µM) was 111%, the viability, T/C (second compound 0.03 µM, first compound 0.1 µM) was 101% and the viability, T/C (second compound 0.03 µM, first compound 0.316 µM) was 85.8%. For the same molecule, the viability, T/C (second compound 0.03 µM, first compound 1 µM) was 96.2%, the viability, T/C (second compound 0.03 µM, first compound 3.16 µM) was 107% and the viability, T/C (second compound 0.03 µM, first compound 10 µM) was 80%. The viability, T/C (second compound 0.0949 µM, first compound 0.0316 µM) was 99.3%, the viability, T/C (second compound 0.0949 µM, first compound 0.1 µM) was 84.3% and the viability, T/C (second compound 0.0949 µM, first compound 0.316 µM) was 96.9%. The viability, T/C (second compound 0.0949 µM, first compound 1 µM) was 92%, the viability, T/C (second compound 0.0949 µM, first compound 3.16 µM) was 102% and the viability, T/C (second compound 0.0949 µM, first compound 10 µM) was 84.8%. For the same molecule, the viability, T/C (second compound 0.3 µM, first compound 0.0316 µM) was 103%, the viability, T/C (second compound 0.3 µM, first compound 0.1 µM) was 98.9% and the viability, T/C (second compound 0.3 µM, first compound 0.316 µM) was 97.8%. For the same molecule, the viability, T/C (second compound 0.3 µM, first compound 1 µM) was 100%, the viability, T/C (second compound 0.3 µM, first compound 3.16 µM) was 119% and the viability, T/C (second compound 0.3 µM, first compound 10 µM) was 85.7%. For the same molecule, the viability, T/C (second compound 0.949 µM, first compound 0.0316 µM) was 92.4%, the viability, T/C (second compound 0.949 µM, first compound 0.1 µM) was 108% and the viability, T/C (second compound 0.949 µM, first compound 0.316 µM) was 103%. It also gave a viability, T/C (second compound 0.949 µM, first compound 1 µM) of 98.7%, a viability, T/C (second compound 0.949 µM, first compound 3.16 µM) of 87% and a viability, T/C (second compound 0.949 µM, first compound 10 µM) of 80.3%. It also gave a viability, T/C (second compound 3 µM, first compound 0.0316 µM) of 81.3%, a viability, T/C (second compound 3 µM, first compound 0.1 µM) of 85.7% and a viability, T/C (second compound 3 µM, first compound 0.316 µM) of 85.1%. It also gave a viability, T/C (second compound 3 µM, first compound 1 µM) of 88.8%, a viability, T/C (second compound 3 µM, first compound 3.16 µM) of 88.2% and a viability, T/C (second compound 3 µM, first compound 10 µM) of 78.9%.
